Assay results taken from the NIST ThermoML archive (doi:10.1016/j.tca.2016.03.002).

Test: refractive index (Na D-line) (dimensionless); xn = mol fraction of the nth substance listed
Details: 100 kPa, Liquid, Standard Abbe refractometry

NC1CCCCC1 [cyclohexylamine] + CO
refractive index
Details | 293.15 K | 298.15 K | 303.15 K
x2 = 0 | 1.45934 | 1.45663 | 1.45325
x2 = 0.0702 | 1.45717 | 1.45462 | 1.45212
x2 = 0.1177 | 1.45561 | 1.45309 | 1.45064
x2 = 0.2006 | 1.45245 | 1.45014 | 1.44761
x2 = 0.3049 | 1.44774 | 1.44542 | 1.4431
x2 = 0.4041 | 1.44199 | 1.43954 | 1.43715
x2 = 0.4986 | 1.43478 | 1.43243 | 1.42999
x2 = 0.5392 | 1.43072 | 1.42852 | 1.42613
x2 = 0.597 | 1.42424 | 1.42256 | 1.42012
x2 = 0.6609 | 1.41597 | 1.41393 | 1.41198
x2 = 0.7024 | 1.40945 | 1.40787 | 1.40569
x2 = 0.746 | – | – | 1.39807
x2 = 0.7999 | 1.39047 | 1.38877 | 1.38677
x2 = 0.8535 | – | 1.3759 | –
x2 = 0.8572 | 1.37655 | 1.37494 | 1.37247
x2 = 0.8985 | 1.36493 | 1.36313 | –
x2 = 0.9032 | 1.36365 | – | 1.35944
x2 = 0.949 | 1.34836 | 1.34625 | 1.3444
